Results as given in PubChem BioAssay (NCI).
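Assay format: 96-well plates, 48-hour exposure. The concentration for full growth arrest is given as TGI.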

Tests used:
Assay in all cases: inhibition of tumour cell growth, NCI panel, 48 h
U251 CNS = system: U251 CNS
A549 NSCLC = system: A549 NSCLC
NCI-H522 lung = system: NCI-H522 lung
UO-31 renal = system: UO-31 renal
SW-620 colon = system: SW-620 colon
MDA-N = system: MDA-N
MDA-MB-231 breast = system: MDA-MB-231 breast
HOP-62 NSCLC = system: HOP-62 NSCLC
SK-OV-3 ovarian = system: SK-OV-3 ovarian
HS 578T breast = system: HS 578T breast
HCT-116 colon = system: HCT-116 colon
IGROV1 ovarian = system: IGROV1 ovarian
SR leukemia = system: SR leukemia
786-0 renal = system: 786-0 renal
SNB-19 CNS = system: SNB-19 CNS
A498 renal = system: A498 renal
MDA-MB-435 = system: MDA-MB-435
MALME-3M melanoma = system: MALME-3M melanoma
EKVX NSCLC = system: EKVX NSCLC
NCI-H460 lung = system: NCI-H460 lung

SMILES | TGI (U251 CNS) [µM] | TGI (A549 NSCLC) [µM] | TGI (NCI-H522 lung) [µM] | TGI (UO-31 renal) [µM] | TGI (SW-620 colon) [µM] | TGI (MDA-N) [µM] | TGI (MDA-MB-231 breast) [µM] | TGI (HOP-62 NSCLC) [µM] | TGI (SK-OV-3 ovarian) [µM] | TGI (HS 578T breast) [µM] | TGI (HCT-116 colon) [µM] | TGI (IGROV1 ovarian) [µM] | TGI (SR leukemia) [µM] | TGI (786-0 renal) [µM] | TGI (SNB-19 CNS) [µM] | TGI (A498 renal) [µM] | TGI (MDA-MB-435) [µM] | TGI (MALME-3M melanoma) [µM] | TGI (EKVX NSCLC) [µM] | TGI (NCI-H460 lung) [µM]
C/C(=N\NC(=S)N(C)CCN(C)C(=S)N/N=C(\C)c1ccccn1)c1ccccn1 | 18.9 | 13.8 | 18.8 | 15.4 | 22.9 | 19.3 | 13.1 | 19 | 20.1 | > 100 | 11.5 | 3.96 | 3.71 | > 100 | 16.6 | 3 | > 100 | 11.1 | 10.4 | –
Cc1ccc(NC2=N/C(=C/c3ccccc3)C(Cl)=N2)cc1 | > 100 | > 100 | > 100 | > 100 | > 100 | > 100 | > 100 | > 100 | > 100 | > 100 | > 100 | > 100 | 98.2 | > 100 | > 100 | > 100 | > 100 | > 100 | > 100 | > 100
COc1cc(Nc2nc3ccc(C(F)(F)F)cc3nc2C(=O)O)cc(OC)c1OC | 36.7 | > 100 | 51.8 | 33.8 | 59.9 | 46.8 | 53.9 | 48.2 | > 100 | 54.8 | 34.9 | 66.6 | > 100 | 74.6 | > 100 | – | 71.1 | 88.8 | 97.2 | 48.4
Cc1nc2ccccc2c(=O)n1NC(=S)Nc1ccc(Cl)cc1[N+](=O)[O-] | > 100 | > 100 | > 100 | > 100 | > 100 | > 100 | > 100 | > 100 | > 100 | > 100 | > 100 | > 100 | > 100 | > 100 | > 100 | > 100 | > 100 | > 100 | > 100 | > 100
O=c1[nH]c(-n2[nH]c3c(c2=O)CCCC3)nc(O)c1-c1ccccc1 | > 100 | – | > 100 | > 100 | > 100 | > 100 | > 100 | – | > 100 | > 100 | > 100 | > 100 | > 100 | > 100 | > 100 | > 100 | > 100 | > 100 | > 100 | > 100
Nc1nc(Nc2ccccc2)sc1C(=O)c1cccs1 | 40.8 | 41.7 | 25.9 | 36.2 | 37.7 | 46.4 | 68.6 | > 65.5 | 90.2 | 43.3 | 18.2 | 36.3 | 11.2 | 28.6 | 46.5 | 38.8 | 29.4 | 37.3 | 31.8 | 24.5
CCC1C(=O)C(O)[C@H]2[C@@H]3C(O)CC4=CC(=O)CC[C@]4(C)[C@H]3CC[C@]12C (some centres not stated) | > 50 | > 50 | > 50 | > 50 | > 50 | > 50 | > 50 | > 50 | > 50 | > 50 | > 50 | > 50 | > 50 | > 50 | > 50 | > 50 | > 50 | > 50 | > 50 | > 50
CN(C)Cc1cc(C=O)cc(CN(C)C)c1O | > 100 | > 100 | > 100 | > 100 | > 100 | > 100 | > 100 | > 100 | – | > 100 | > 100 | > 100 | > 100 | > 100 | > 100 | > 100 | > 100 | > 100 | > 100 | > 100
CC(C)=CCN1c2ccc(Cl)cc2NC(=O)CC1C (configuration not stated) | 76.6 | > 100 | 47.4 | > 100 | > 100 | 51.7 | 45.7 | 61.7 | > 100 | 72.1 | 38 | 62.4 | > 100 | 34.8 | > 100 | 49 | 41.1 | 49.6 | 83.5 | 37.6
CCOC(=O)C(NCc1cccc(C(F)(F)F)c1)(NC(=O)CC)C(F)(F)F (configuration not stated) | > 100 | > 100 | > 100 | > 100 | > 100 | > 100 | > 100 | > 100 | > 100 | > 100 | > 100 | > 100 | > 100 | > 100 | > 100 | – | > 100 | > 100 | > 100 | –
Cc1nc2c(o1)C(=O)c1ccccc1C2=Nc1ccc(N2CCOCC2)cc1 | 14.4 | 17.8 | 7 | 10.2 | 26.5 | 3.5 | 8.84 | 22.3 | > 100 | 12.5 | 13.6 | 30.4 | 13.3 | 61 | 36.9 | 35.4 | 3.58 | 3.25 | 17.4 | 26.8
Cn1/c(=N\N=C(\CNCCO)[C@@H](O)[C@@H]2OC(c3ccccc3)OC[C@H]2O)sc2ccccc21 (some centres not stated) | 31.8 | 31.1 | 32.7 | 30.1 | 37.5 | 32.5 | 29.8 | 34.7 | 37.7 | 31.1 | 29.5 | 35 | 41 | 34.3 | 26.3 | – | 35 | 32.3 | 33.2 | 49
